Values of other authors as cited in patent US20120316134A1, “ANAESTHETIC COMPOSITION” (JUROX PTY. LTD., priority 2000, published 2012).

Conditions: in vivo

CC(=O)OCC(=O)[C@H]1CC[C@H]2[C@@H]3CC[C@H]4C[C@H](O)CC[C@]4(C)[C@H]3C(=O)C[C@]12C [alfadolone acetate, 21-acetoxy-3 α-hydroxy-5α-pregnane-11,20-dione]
Anaesthetic potency relative to alfaxalone: half as potent
